Results published in US6528630B1 (priority 1997, dated 2003).

Key:
[1] = molecular target: T1, α1B-1α2bβ1-2 (Homo sapiens, UniProt Q00975); assay type: cell-based
T1 construct: A full-length α1B DNA clone was constructed by ligating portions of the partial cDNA clones; expressed in transfected cells; host or cells: HEK293 (transient)

[2] = molecular target: T2, α1B-1, α2b, and β1-2 subunits (Homo sapiens, UniProt Q00975); assay type: binding
T2 construct: A full-length α1B DNA clone was constructed by ligating portions of the partial cDNA clones; expressed in transfected cells; host or cells: HEK293 (transient)

[3] = molecular target: T3, α1B-2β1-3 (Homo sapiens, UniProt Q00975); assay type: binding
T3 construct: Full-length DNA clones and corresponding RNA transcripts, encoding α1, including splice variants of α1A, α1B; expressed in transfected cells; host or cells: HEK293 (transient)
T3 sequence (Q00975 1-2237 isoform Q00975-2): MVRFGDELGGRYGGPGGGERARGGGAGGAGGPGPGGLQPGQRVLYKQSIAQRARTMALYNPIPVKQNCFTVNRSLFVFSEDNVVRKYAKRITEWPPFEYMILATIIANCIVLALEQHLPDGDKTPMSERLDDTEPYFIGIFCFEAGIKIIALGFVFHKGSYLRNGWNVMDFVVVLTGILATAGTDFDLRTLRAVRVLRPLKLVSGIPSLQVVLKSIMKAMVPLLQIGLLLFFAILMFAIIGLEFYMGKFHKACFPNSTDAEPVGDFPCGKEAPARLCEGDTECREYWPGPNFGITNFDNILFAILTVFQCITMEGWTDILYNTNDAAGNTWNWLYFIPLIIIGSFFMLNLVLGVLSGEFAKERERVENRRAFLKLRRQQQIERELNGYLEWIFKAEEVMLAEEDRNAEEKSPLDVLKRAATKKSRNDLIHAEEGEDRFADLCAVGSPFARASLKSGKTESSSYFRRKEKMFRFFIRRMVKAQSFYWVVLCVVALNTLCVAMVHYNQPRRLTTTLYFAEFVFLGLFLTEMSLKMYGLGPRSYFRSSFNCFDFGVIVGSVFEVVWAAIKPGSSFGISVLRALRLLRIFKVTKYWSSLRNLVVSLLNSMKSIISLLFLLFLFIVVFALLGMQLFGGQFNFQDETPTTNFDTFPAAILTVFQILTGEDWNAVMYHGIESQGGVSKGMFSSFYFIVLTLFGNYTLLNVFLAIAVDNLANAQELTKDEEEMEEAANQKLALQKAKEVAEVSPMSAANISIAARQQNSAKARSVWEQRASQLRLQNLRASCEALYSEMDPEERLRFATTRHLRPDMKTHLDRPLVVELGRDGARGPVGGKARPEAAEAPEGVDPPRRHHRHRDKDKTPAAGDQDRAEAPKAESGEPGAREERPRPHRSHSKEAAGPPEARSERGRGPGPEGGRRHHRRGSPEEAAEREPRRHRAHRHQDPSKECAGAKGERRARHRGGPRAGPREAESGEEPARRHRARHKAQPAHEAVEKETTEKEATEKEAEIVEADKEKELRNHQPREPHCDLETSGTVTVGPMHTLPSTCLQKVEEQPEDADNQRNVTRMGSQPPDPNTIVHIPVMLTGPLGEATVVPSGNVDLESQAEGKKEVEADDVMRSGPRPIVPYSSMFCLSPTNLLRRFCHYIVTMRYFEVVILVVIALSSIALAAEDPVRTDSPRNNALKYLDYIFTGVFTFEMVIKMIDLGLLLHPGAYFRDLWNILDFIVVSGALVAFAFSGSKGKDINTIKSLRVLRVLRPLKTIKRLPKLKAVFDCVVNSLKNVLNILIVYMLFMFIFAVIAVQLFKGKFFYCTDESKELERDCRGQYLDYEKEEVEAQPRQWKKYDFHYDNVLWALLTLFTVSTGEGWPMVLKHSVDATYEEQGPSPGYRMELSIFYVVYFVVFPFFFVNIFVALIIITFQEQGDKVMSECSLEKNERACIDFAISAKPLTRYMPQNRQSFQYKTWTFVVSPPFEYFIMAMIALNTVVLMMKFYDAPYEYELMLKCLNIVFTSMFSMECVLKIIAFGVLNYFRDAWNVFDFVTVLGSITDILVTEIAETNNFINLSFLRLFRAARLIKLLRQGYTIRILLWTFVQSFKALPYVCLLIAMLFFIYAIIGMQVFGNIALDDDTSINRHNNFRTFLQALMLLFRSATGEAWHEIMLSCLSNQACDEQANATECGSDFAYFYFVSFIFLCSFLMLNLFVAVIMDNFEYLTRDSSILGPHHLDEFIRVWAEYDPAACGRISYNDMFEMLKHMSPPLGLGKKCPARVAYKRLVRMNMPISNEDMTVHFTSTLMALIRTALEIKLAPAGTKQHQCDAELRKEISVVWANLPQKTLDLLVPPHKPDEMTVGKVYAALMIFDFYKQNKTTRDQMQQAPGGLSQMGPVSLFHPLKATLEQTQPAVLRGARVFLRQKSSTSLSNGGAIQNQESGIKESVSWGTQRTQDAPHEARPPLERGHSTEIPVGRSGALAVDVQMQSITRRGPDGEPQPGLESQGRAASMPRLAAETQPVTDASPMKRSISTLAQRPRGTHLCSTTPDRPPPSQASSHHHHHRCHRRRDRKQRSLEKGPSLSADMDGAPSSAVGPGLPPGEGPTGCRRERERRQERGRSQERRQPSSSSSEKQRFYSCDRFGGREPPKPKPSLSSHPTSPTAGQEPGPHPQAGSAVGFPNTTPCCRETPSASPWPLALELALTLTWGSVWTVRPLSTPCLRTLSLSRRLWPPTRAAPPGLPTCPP
T3 sequence (Q02641 whole entry partner, canonical isoform): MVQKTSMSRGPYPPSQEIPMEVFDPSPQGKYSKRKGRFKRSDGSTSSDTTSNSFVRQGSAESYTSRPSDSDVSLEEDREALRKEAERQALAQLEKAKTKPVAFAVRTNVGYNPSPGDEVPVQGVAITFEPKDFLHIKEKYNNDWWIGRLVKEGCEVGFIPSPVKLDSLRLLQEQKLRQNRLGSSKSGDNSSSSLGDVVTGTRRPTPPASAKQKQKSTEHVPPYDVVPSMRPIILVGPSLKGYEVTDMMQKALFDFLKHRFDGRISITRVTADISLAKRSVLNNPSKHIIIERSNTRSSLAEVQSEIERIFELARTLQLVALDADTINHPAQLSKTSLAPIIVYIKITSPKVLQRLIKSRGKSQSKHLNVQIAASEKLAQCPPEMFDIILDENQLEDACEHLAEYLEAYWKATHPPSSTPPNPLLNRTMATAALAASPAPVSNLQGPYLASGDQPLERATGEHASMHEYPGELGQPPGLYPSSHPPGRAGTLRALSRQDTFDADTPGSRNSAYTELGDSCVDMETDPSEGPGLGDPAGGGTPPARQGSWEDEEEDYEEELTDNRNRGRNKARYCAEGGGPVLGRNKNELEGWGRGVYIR

[4] = molecular target: T1, α1B-1α2bβ1-2; assay type: binding
[5] = molecular target: T4, α1B-2α2bβ1-3 (Homo sapiens, UniProt Q00975); assay type: binding
T4 construct: Full-length DNA clones and corresponding RNA transcripts, encoding α1, including splice variants of α1A, α1B; expressed in transfected cells; host or cells: HEK293 (transient)

[6] = molecular target: T5, α1B-1α2b (Homo sapiens, UniProt Q00975); assay type: binding
T5 construct: A full-length α1B DNA clone was constructed by ligating portions of the partial cDNA clones; expressed in transfected cells; host or cells: HEK293 (transient)

[7] = molecular target: T6, α1B-2β1-2 (Homo sapiens, UniProt Q00975); assay type: binding
T6 construct: Full-length DNA clones and corresponding RNA transcripts, encoding α1, including splice variants of α1A, α1B; expressed in transfected cells; host or cells: HEK293 (transient)

[8] = molecular target: T7, α1B-2a2bβ1-2 (Homo sapiens, UniProt Q00975); assay type: binding
T7 construct: Full-length DNA clones and corresponding RNA transcripts, encoding α1, including splice variants of α1A, α1B; expressed in transfected cells; host or cells: HEK293 (transient)

[9] = molecular target: T8, α1B-1α2bβ1-3 (Homo sapiens, UniProt Q00975); assay type: binding
T8 construct: A full-length α1B DNA clone was constructed by ligating portions of the partial cDNA clones; expressed in transfected cells; host or cells: HEK293 (transient)

[10] = molecular target: T9, α1B-1β1-3 (Homo sapiens, UniProt Q00975); assay type: binding
T9 construct: A full-length α1B DNA clone was constructed by ligating portions of the partial cDNA clones; expressed in transfected cells; host or cells: HEK293 (transient)

[11] = molecular target: T10, α1B-1β1-2 (Homo sapiens, UniProt Q00975); assay type: binding
T10 construct: A full-length α1B DNA clone was constructed by ligating portions of the partial cDNA clones; expressed in transfected cells; host or cells: HEK293 (transient)

[12] = tested on: untransfected HEK 293 cells; experiment: Whole-cell patch clamp of untransfected HEK 293 cells; assay type: cell-based, human; details: with or without cAMP or forskolin
[13] = tested on: human neuronal calcium channel α2 and β1 subunits; experiment: Two-electrode voltage clamp of Xenopus oöcytes injected with α2 and β1 transcripts; details: Bay K 8644; n=11

T1 sequence (Q00975 whole entry, looked up): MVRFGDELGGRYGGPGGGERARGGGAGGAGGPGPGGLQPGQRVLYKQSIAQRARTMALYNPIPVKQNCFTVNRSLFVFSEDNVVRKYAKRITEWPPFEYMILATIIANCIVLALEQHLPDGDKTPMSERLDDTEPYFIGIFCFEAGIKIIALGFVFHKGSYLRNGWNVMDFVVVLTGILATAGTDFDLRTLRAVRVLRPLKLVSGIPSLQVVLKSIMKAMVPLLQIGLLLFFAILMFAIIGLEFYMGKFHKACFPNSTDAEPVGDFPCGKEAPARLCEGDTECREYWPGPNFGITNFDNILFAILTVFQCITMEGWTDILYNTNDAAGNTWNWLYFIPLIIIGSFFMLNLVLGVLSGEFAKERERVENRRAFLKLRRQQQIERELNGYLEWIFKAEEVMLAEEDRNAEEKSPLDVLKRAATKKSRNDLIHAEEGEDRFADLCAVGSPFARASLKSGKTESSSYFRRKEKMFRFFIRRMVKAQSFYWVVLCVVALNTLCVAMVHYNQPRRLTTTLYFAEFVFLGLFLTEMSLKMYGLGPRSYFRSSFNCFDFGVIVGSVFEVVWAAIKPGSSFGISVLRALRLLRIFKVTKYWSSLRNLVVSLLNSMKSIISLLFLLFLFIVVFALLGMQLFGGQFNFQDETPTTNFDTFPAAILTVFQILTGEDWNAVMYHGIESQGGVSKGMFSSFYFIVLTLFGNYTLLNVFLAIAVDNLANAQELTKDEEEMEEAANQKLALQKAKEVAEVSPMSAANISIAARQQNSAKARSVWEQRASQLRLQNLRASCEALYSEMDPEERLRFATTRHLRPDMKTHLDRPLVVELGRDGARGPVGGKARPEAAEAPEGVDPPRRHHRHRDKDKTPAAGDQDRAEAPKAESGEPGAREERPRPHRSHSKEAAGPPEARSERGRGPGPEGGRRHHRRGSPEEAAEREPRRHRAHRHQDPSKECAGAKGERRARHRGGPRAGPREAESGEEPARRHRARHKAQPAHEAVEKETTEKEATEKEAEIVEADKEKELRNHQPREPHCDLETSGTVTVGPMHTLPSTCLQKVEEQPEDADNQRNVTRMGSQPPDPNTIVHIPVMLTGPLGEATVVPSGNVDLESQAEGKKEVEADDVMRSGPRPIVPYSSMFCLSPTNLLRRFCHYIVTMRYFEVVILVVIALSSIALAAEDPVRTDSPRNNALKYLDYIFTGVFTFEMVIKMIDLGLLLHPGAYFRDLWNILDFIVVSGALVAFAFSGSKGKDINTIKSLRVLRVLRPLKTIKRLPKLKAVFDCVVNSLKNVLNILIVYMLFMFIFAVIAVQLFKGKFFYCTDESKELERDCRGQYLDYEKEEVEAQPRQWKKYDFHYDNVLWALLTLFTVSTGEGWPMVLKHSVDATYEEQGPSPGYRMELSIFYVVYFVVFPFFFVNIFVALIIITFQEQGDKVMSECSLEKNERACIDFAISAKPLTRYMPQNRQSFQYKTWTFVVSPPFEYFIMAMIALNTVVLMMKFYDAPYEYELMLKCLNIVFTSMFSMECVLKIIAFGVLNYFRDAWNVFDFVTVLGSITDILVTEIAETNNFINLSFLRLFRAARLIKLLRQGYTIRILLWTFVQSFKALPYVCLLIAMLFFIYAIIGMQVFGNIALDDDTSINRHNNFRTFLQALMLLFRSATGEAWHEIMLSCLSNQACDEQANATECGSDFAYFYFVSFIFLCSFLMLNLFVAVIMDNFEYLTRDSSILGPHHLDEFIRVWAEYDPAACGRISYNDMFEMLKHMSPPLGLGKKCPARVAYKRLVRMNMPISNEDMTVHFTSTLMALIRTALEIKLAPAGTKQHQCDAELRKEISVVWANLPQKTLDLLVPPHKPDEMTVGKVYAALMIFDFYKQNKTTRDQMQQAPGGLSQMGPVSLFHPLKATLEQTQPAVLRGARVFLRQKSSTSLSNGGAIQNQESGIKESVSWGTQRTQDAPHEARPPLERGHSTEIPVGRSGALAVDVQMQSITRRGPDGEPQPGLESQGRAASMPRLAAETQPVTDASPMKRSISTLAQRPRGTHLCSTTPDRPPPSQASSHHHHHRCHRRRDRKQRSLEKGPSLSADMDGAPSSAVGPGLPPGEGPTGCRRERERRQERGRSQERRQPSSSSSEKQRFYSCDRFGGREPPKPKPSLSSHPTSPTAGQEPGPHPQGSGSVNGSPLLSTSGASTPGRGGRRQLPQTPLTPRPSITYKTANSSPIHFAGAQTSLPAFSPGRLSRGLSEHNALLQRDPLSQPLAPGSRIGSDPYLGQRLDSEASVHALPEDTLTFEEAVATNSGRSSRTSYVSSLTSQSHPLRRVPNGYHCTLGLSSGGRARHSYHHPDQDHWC

For `[Cd]` [cadmium], the blockage ([1]; 50 μM) was “rapid, complete, and reversible”.

For `C[C@@H](O)[C@@H]1NC(=O)[C@H](Cc2ccc(O)cc2)NC(=O)[C@@H]2C[C@@H](O)CN2C(=O)[C@H](CC(N)=O)NC(=O)[C@@H]2CSSC[C@@H]3NC(=O)[C@H](CO)NC(=O)[C@H](CO)NC(=O)CNC(=O)[C@@H]4C[C@@H](O)CN4C(=O)[C@H](CO)NC(=O)[C@H](CCCCN)NC(=O)[C@@H](N)CSSC[C@H](NC(=O)[C@H](CSSC[C@@H](C(=O)N[C@@H](Cc4ccc(O)cc4)C(N)=O)NC(=O)[C@H](CCCNC(=N)N)NC(=O)[C@H](CCCCN)NC1=O)NC(=O)[C@H](CC(N)=O)NC(=O)[C@H](Cc1ccc(O)cc1)NC(=O)[C@H](CO)NC(=O)[C@H]([C@@H](C)O)NC(=O)[C@@H]1C[C@@H](O)CN1C(=O)[C@H](CO)NC3=O)C(=O)N[C@@H](CCCNC(=N)N)C(=O)N[C@@H](CO)C(=O)N2` [ω-CgTX], the “binding capacity (Bmax)” value [2] was 28,710±11,950 sites per cell, the block of activity [1] was “blocked the activity completely” and the block of channels [1] was “blocked irreversibly”. The “time to complete block” value [1] was ≤ 2 min.

For `C[C@@H](O)[C@@H]1NC(=O)[C@H](Cc2ccc(O)cc2)NC(=O)[C@@H]2C[C@@H](O)CN2C(=O)[C@H](CC(N)=O)NC(=O)[C@@H]2CSSC[C@@H]3NC(=O)[C@H](CO)NC(=O)[C@H](CO)NC(=O)CNC(=O)[C@@H]4C[C@@H](O)CN4C(=O)[C@H](CO)NC(=O)[C@H](CCCCN)NC(=O)[C@@H](N)CSSC[C@H](NC(=O)[C@H](CSSC[C@@H](C(=O)N[C@@H](Cc4ccc(O)cc4)C(N)=O)NC(=O)[C@H](CCCNC(=N)N)NC(=O)[C@H](CCCCN)NC1=O)NC(=O)[C@H](CC(N)=O)NC(=O)[C@H](Cc1ccc(O)cc1)NC(=O)[C@H](CO)NC(=O)[C@H]([C@@H](C)O)NC(=O)[C@@H]1C[C@@H](O)CN1C(=O)[C@H](CO)NC3=O)C(=O)N[C@@H](CCCNC(=N)N)C(=O)N[C@@H](CO)C(=O)N2` [^125I-ω-CgTx GVIA], the “Bmax (sites/cell)” value [3] was 2,944 ± 1,168 sites/cell, the “Bmax (sites/cell)” value [4] was 45,324 ± 15,606 sites/cell and the “Bmax (sites/cell)” value [5] was 37,652 ± 8,129 sites/cell. For the same molecule, the “Bmax (sites/cell)” value [6] was 2,256 ± 356 sites/cell, the “Bmax (sites/cell)” value [7] was 2,126 ± 412 sites/cell and the “Bmax (sites/cell)” value [8] was 19,371 ± 3,798 sites/cell. For the same molecule, the “Bmax (sites/cell)” value [9] was 91,004 ± 37,654 sites/cell, the “Bmax (sites/cell)” value [10] was 8,729 ± 2,980 sites/cell and the “Bmax (sites/cell)” value [11] was 5,756 ± 2,163 sites/cell.

In the case of `COC(=O)C1=C(C)NC(C)=C([N+](=O)[O-])C1c1ccccc1C(F)(F)F` (centres unmarked) [Bay K 8644], the “effect on channel activity” value ([1]; 1 μM, n=4) is reported as “no discernable effect”, the “effects of Bay K 8644 (current magnitude, tail currents, activation voltage)” value [12] is reported as “No such effects” and the “sensitivity of inward barium currents” value [13] is reported as “insensitive”.
